Source: ChEMBL document CHEMBL3272010, “Antimycotic imidazoles. 3. Synthesis and antimycotic properties of 1-[2-(aryloxyalkyl)-2-phenylethyl]-1H-imidazoles” (1977)

What was measured:
Type in all cases: functional
Aspergillus fumigatus = assay: Antifungal activity against Aspergillus fumigatus assessed as lowest dose required to total inhibition of fungal growth
Phialophora verrucosa = assay: Antifungal activity against Phialophora verrucosa assessed as lowest dose required to total inhibition of fungal growth
Candida tropicalis = assay: Antifungal activity against Candida tropicalis assessed as lowest dose required to total inhibition of fungal growth
Saprolegnia = assay: Antifungal activity against Saprolegnia species assessed as lowest dose required to total inhibition of fungal growth
Sporothrix schenckii = assay: Antifungal activity against Sporothrix schenckii assessed as lowest dose required to total inhibition of fungal growth
Candida albicans = assay: Antifungal activity against Candida albicans assessed as lowest dose required to total inhibition of fungal growth
[1] = system: Trichophyton mentagrophytes; assay: Antifungal activity against Trichophyton mentagrophytes assessed as lowest dose required to total inhibition of fungal growth
Streptococcus pyogenes = assay: Antibaterial activity against Streptococcus pyogenes assessed as lowest dose required to total inhibition of bacterial growth
[2] = system: Erysipelothrix rhusiopathiae; assay: Antibaterial activity against Erysipelothrix insidiosa assessed as lowest dose required to total inhibition of bacterial growth
[3] = system: Staphylococcus haemolyticus; assay: Antibaterial activity against Staphylococcus haemolyticus assessed as lowest dose required to total inhibition of bacterial growth
Microsporum canis = assay: Antifungal activity against Microsporum canis assessed as lowest dose required to total inhibition of fungal growth
Mucor = assay: Antifungal activity against Mucor species assessed as lowest dose required to total inhibition of fungal growth
Cryptococcus neoformans = assay: Antifungal activity against Cryptococcus neoformans assessed as lowest dose required to total inhibition of fungal growth
Trichophyton rubrum = assay: Antifungal activity against Trichophyton rubrum assessed as lowest dose required to total inhibition of fungal growth

SMILES	GI (Aspergillus fumigatus) [µg/mL]	GI (Phialophora verrucosa) [µg/mL]	GI (Candida tropicalis) [µg/mL]	GI (Saprolegnia) [µg/mL]	GI (Sporothrix schenckii) [µg/mL]	GI (Candida albicans) [µg/mL]	GI [1] [µg/mL]	GI (Streptococcus pyogenes) [µg/mL]	GI [2] [µg/mL]	GI [3] [µg/mL]	GI (Microsporum canis) [µg/mL]	GI (Mucor) [µg/mL]	GI (Cryptococcus neoformans) [µg/mL]	GI (Trichophyton rubrum) [µg/mL]
Clc1ccc(C(COc2ccc(Cl)cc2Cl)Cn2ccnc2)cc1.O=[N+]([O-])O (stereo not drawn)	100	100	>100	>100	10	10	<1	<1	1	10	10	>100	<1	<1
Clc1ccc(COC(Cn2ccnc2)c2ccc(Cl)cc2Cl)c(Cl)c1 (stereo not drawn) [MICONAZOLE]	10	100	100	10	1	10	<1	<1	<1	10	1	>100	1	<1
Clc1ccc(C(COc2ccccc2Cl)Cn2ccnc2)c(Cl)c1.O=[N+]([O-])O (stereo not drawn)	100	100	>100	100	10	100	<1	<1	<1	1	10	>100	<1	<1
Clc1ccc(C(CCOc2ccccc2Br)Cn2ccnc2)c(Cl)c1.O=C(O)C(=O)O (stereo not drawn)	>100	100	>100	100	10	>100	<1	<1	<1	10	100	>100	<1	<1
Clc1ccc(C(CCCOc2ccccc2)Cn2ccnc2)c(Cl)c1.O=C(O)C(=O)O (stereo not drawn)	10	10	>100	10	<1	>100	<1	<1	<1	10	10	>100	<1	<1
Clc1ccc(C(CCOc2ccc(Br)cc2)Cn2ccnc2)c(Cl)c1.O=[N+]([O-])O (stereo not drawn)	100	<10	100	<10	<10	<10	<10	<10	<10	100	<10	100	<10	<10
Clc1ccc(OCC(Cn2ccnc2)c2ccc(Cl)cc2)cc1.O=[N+]([O-])O (stereo not drawn)	100	100	>100	100	10	>100	<1	<1	1	10	<1	10	<1	<1
Clc1ccc(OCC(Cn2ccnc2)c2ccc(Br)cc2)cc1.O=[N+]([O-])O (stereo not drawn)	100	100	>100	>100	10	100	<1	<1	<1	10	10	>100	10	<1
Clc1ccc(C(CCCOc2ccccc2Br)Cn2ccnc2)c(Cl)c1.O=C(O)C(=O)O (stereo not drawn)	100	100	>100	100	10	100	<1	<1	<1	10	<1	>100	<1	<1
Clc1ccc(C(COc2ccccc2Cl)Cn2ccnc2)cc1.O=[N+]([O-])O (stereo not drawn)	>100	>100	>100	>100	10	100	<1	1	1	10	100	100	<1	10
Fc1ccc(OCCCC(Cn2ccnc2)c2ccc(Cl)cc2Cl)cc1.O=C(O)C(=O)O (stereo not drawn)	100	100	>100	10	<1	>100	<1	1	1	10	<1	>100	<1	<1
Clc1ccc(C(COc2ccc(Br)cc2)Cn2ccnc2)c(Cl)c1.O=[N+]([O-])O (stereo not drawn)	100	100	>100	100	100	100	<1	<1	<1	10	<1	100	<1	<1
Clc1ccc(OCCC(Cn2ccnc2)c2ccc(Cl)cc2Cl)cc1.O=[N+]([O-])O (stereo not drawn)	100	100	>100	10	10	10	<1	<1	<1	1	10	10	<1	<1
Clc1ccc(OCC(Cn2ccnc2)c2ccc(Cl)cc2Cl)cc1.O=[N+]([O-])O (stereo not drawn)	10	10	>100	100	10	10	<1	<1	<1	10	10	100	<1	<1
COc1ccc(OCCC(Cn2ccnc2)c2ccc(Cl)cc2Cl)cc1.O=[N+]([O-])O (stereo not drawn)	100	10	>100	<1	10	100	<1	<1	<1	10	10	100	<1	<1
COc1ccc(OCCCC(Cn2ccnc2)c2ccc(Cl)cc2Cl)cc1.O=C(O)C(=O)O (stereo not drawn)	10	10	>100	<1	<1	10	<1	<1	<1	100	10	100	<1	<1
Clc1ccc(OCC(Cn2ccnc2)c2ccc(Cl)cc2Cl)c(Cl)c1.O=[N+]([O-])O (stereo not drawn)	>100	100	>100	>100	<1	>100	<1	<1	<1	1	<1	>100	<1	<1
